Measured values published in patent US20250041429A1, “COMPOUND HAVING BTK PROTEIN DEGRADATION ACTIVITY, AND MEDICAL USES THEREOF” (UBIX THERAPEUTICS, INC., priority 2021, published 2025).

Target: T1, BTK protein (Homo sapiens, UniProt Q06187)
T1 construct: endogenous in cells; host or cells: TMD-8 cells
Assay: Measurement of BTK protein degradation ability in TMD-8 cells (Western blotting)
Format: cell-based
Details: harvested after 24 hours; for BTK degradation (%) 10 nM: compound 10 nM; for BTK degradation (%) 100 nM: compound 100 nM; for BTK degradation (%) 1 nM: compound 1 nM
Method: TMD-8, RAMOS, or 293T BTK MUT (C481S) cells were treated with the synthesized compounds, and then the amount of BTK protein present in the cells was measured using Western blotting detection. The protocol for the experiment conducted using TMD-8 cells was as follows:
[Culture] TMD-8 cells were resuspended in RPMI1640 MEDIUM (Hyclone, SH30027.01), 10% FBS (Hyclone, SV30207.02), and 1% Penicillin-streptomycin (Welgene, LS 202-02) media, and 1 mL of this suspension was seeded in a 12-well plate at a cell concentration of 1×10^6/mL.
[Compound treatment] The 12-well plate was treated as follows: The 10 mM stock was serially diluted 1/10 with DMSO (3 μL+27 μL DMSO), and cells were treated with compounds at final concentrations of 0.1, 1, 10 μM or 0.0001, 0.001, 0.01, 0.1 μM, and harvested after 24 hours. In the negative control group, DMSO diluted 1/10 was added to the media. (3 μL DMSO+27 μL media)
[Harvest] Each well was pipetted with a 1 mL pipette, collected in a 1.5 mL microtube, and centrifuged (500 g, 5 min, 4° C.). After removing the supernatant, it was washed with PBS and centrifuged again (500 g, 5 min, 4° C.). The supernatant was removed and the pellet was collected.
[Cell lysis and Sample preparation] lysis buffer was prepared as follows: RIPA buffer (Biosesang, RC2038-050-00), 0.5 mM PMSF (SIGMA, P7626) and 1× Protease/Phosphatase Inhibitor (Cell signaling, 5872S) were added at 60-70 μL per well and left on ice for 30 minutes. (Vortexing at 0 and 30 minutes, respectively), followed by sonication (10 seconds pulse, 30 seconds rest, 5 cycles, 70% amplification) and centrifuge (15000 g, 15 min, 4° C.). Only the supernatant was collected and transferred to a new microtube. The samples were diluted by ½ with RIPA buffer in a 96-well plate. 200 μL of the mixture A:B=50:1 of the BCA Protein Assay Kit (iNtRON, 21071) was added each, stayed at 37° C. for 30 minutes, and cooled for 10 minutes. Afterwards, absorbance was measured at 562 nm using BioTek's SYNERGY H1 microplate reader. After making a sample by quantifying the protein using the measured value, it was boiled at 70° C. for 10 minutes. The sample buffer used at this time was a mixture of NuPAGE or Bolt 4× sample buffer (Invitrogen) and each 10× sample reducing agent according to the gel to be used. RIPA buffer was used for protein dilution.
[Western blotting detection method] The same amount of sample was loaded on NuPAGE or Bolt Bis-tris 4-12% gradient gel and run (200 V, 35 minutes). It was transferred to a […] NC membrane using Trans-blot Turbo (BIO-RAD) (1.3 A constant, 25 V limit, 15 minutes). For blocking, skim milk or Intercept Blocking Buffer (LI-COR, 927-60001): 0.1% TBST=1:1 was used at room temperature for 1 hour. Anti BTK Rabbit (1:1,000 in 5% skim milk/0.2% TBST, size: 77 kDa, Cell signaling Technology) was reacted at 4° C. for 16 hours or at room temperature for 2 hours. Anti GAPDH Rabbit (1:10,000 in 5% BSA/0.2% TBST, size: 36 kDa, GENETEX) and Anti β-actin mouse (1:10,000 in 5% BSA/0.2% TBST, RT, size: 43 kDa, GENETEX) were reacted at room temperature for 1 hour or 3 hours. The samples were washed 3 times with 0.5% TBST for 5 minutes each. Secondary antibodies, Anti-Rabbit IgG (1:5,000 in 5% Skim milk/TBST, CST), IRDye® 800CW Goat anti-Rabbit IgG Secondary Antibody (1:10,000 in 5% skim/TBST, RT 45 min), IRDye® 680RD Goat anti-Mouse IgG Secondary Antibody (1:10,000 in 5% skim/TBST, RT 45 min) were added depending on each sample and reacted for 45 minutes on a rocker at room temperature. The samples were washed 5 times with 0.5% TBST for 5 minutes each and detected with LI-COR's Odyssey. At this time, BTK was detected using SuperSignal West Pico PLUS Chemiluminescent Substrate or SuperSignal West femto Maximum Sensitivity Substrate, and house-keeping genes were detected as is.

T1 sequence (Q06187 whole entry): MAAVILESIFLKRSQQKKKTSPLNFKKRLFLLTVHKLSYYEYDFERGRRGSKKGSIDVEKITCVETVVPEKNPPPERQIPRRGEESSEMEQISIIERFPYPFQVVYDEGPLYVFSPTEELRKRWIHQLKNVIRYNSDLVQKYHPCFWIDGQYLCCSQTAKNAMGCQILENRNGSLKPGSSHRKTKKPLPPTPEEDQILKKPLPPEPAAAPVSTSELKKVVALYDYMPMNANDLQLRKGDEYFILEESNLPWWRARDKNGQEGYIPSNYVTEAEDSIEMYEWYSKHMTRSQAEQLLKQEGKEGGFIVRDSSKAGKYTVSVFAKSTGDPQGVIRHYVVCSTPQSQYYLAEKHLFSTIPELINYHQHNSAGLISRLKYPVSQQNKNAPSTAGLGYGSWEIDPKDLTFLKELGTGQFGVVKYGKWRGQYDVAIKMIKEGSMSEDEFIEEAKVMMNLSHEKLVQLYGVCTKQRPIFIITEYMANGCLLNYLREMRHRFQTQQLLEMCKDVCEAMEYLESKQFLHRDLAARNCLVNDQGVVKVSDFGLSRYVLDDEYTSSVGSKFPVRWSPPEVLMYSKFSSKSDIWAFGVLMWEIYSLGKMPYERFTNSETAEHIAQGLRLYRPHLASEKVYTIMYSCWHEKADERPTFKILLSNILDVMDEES

SMILES	BTK degradation (%) 10 nM [%]	BTK degradation (%) 100 nM [%]	BTK degradation (%) 1 nM [%]
Cc1cc(-c2ccnc(Nc3ccc4c(c3)CN(CC3CCN(c5ccc6c(c5)C(=O)N(C5CCC(=O)NC5=O)C6=O)CC3)CC4)n2)ccc1CNC(=O)N1CC(OC(C)C)C1 (stereo not drawn) [Example 1, N-(4-(2-((2-((1-(2-(2,6-dioxopiperidin-3-yl)-1,3-dioxoisoindolin-5-yl)piperidin-4-yl)methyl)-1,2,3,4-tetrahydroisoquinolin-7-yl)amino)pyrimidin-4-yl)-2-methylbenzyl)-3-isopropoxyazetidine-1-carboxamide]	92	97.5	
Cc1cc(-c2ccnc(Nc3ccc4c(c3)CN(CC3CCN(c5ccc6c(c5)C(=O)N(C5CCC(=O)NC5=O)C6=O)CC3)CC4)n2)ccc1CNC(=O)c1cnn(C(C)(C)C)c1 (stereo not drawn) [Example 2, 1-(tert-butyl)-N-(4-(2-((2-((1-(2-(2,6-dioxopiperidin-3-yl)-1,3-dioxoisoindolin-5-yl)piperidin-4-yl)methyl)-1,2,3,4-tetrahydroisoquinolin-7-yl)amino)pyrimidin-4-yl)-2-methylbenzyl)-1H-pyrazole-4-carboxamide]	84.5	94	
Cc1cc(-c2ccnc(Nc3ccc4c(c3)CN(CC3CCN(c5ccc6c(c5)C(=O)N(C5CCC(=O)NC5=O)C6=O)CC3)CC4)n2)ccc1CNC(=O)c1cn(C(C)(C)C)nn1 (stereo not drawn) [Example 3, 1-(tert-butyl)-N-(4-(2-((2-((1-(2-(2,6-dioxopiperidin-3-yl)-1,3-dioxoisoindolin-5-yl)piperidin-4-yl)methyl)-1,2,3,4-tetrahydroisoquinolin-7-yl)amino)pyrimidin-4-yl)-2-methylbenzyl)-1H-1,2,3-triazole-4-carboxamide]	84	93	
Cc1c(NC(=O)N2CC(OC(C)C)C2)cc(F)cc1-c1ccnc(Nc2ccc3c(c2)CN(CC2CCN(c4ccc5c(c4)C(=O)N(C4CCC(=O)NC4=O)C5=O)CC2)CC3)n1 (stereo not drawn) [Example 4, N-(3-(2-((2-((1-(2-(2,6-dioxopiperidin-3-yl)-1,3-dioxoisoindolin-5-yl)piperidin-4-yl)methyl)-1,2,3,4-tetrahydroisoquinolin-7-yl)amino)pyrimidin-4-yl)-5-fluoro-2-methylphenyl)-3-isopropoxyazetidine-1-carboxamide]	−3.5	29	
Cc1c(NC(=O)c2cnn(C(C)(C)C)c2)cc(F)cc1-c1ccnc(Nc2ccc3c(c2)CN(CC2CCN(c4ccc5c(c4)C(=O)N(C4CCC(=O)NC4=O)C5=O)CC2)CC3)n1 (stereo not drawn) [Example 5, 1-(tert-butyl)-N-(3-(2-((2-((1-(2-(2,6-dioxopiperidin-3-yl)-1,3-dioxoisoindolin-5-yl)piperidin-4-yl)methyl)-1,2,3,4-tetrahydroisoquinolin-7-yl)amino)pyrimidin-4-yl)-5-fluoro-2-methylphenyl)-1H-pyrazole-4-carboxamide]	−12	−7	
Cc1c(NC(=O)c2cn(C(C)(C)C)nn2)cc(F)cc1-c1ccnc(Nc2ccc3c(c2)CN(CC2CCN(c4ccc5c(c4)C(=O)N(C4CCC(=O)NC4=O)C5=O)CC2)CC3)n1 (stereo not drawn) [Example 6, 1-(tert-butyl)-N-(3-(2-((2-((1-(2-(2,6-dioxopiperidin-3-yl)-1,3-dioxoisoindolin-5-yl)piperidin-4-yl)methyl)-1,2,3,4-tetrahydroisoquinolin-7-yl)amino)pyrimidin-4-yl)-5-fluoro-2-methylphenyl)-1H-1,2,3-triazole-4-carboxamide]	−2.5	10	

Results, then the compound that gave them:

BTK degradation (%) 10 nM [%]	BTK degradation (%) 100 nM [%]	BTK degradation (%) 1 nM [%]	SMILES
90	98.5		Cc1cc(-c2ccnc(Nc3ccc(N4CCN(CC5CCN(c6ccc7c(c6)C(=O)N(C6CCC(=O)NC6=O)C7=O)CC5)CC4)cc3)n2)ccc1CNC(=O)N1CC(OC(C)C)C1 (stereo not drawn) [Example 7, N-(4-(2-((4-(4-((1-(2-(2,6-dioxopiperidin-3-yl)-1,3-dioxoisoindolin-5-yl)piperidin-4-yl)methyl)piperazin-1-yl)phenyl)amino)pyrimidin-4-yl)-2-methylbenzyl)-3-isopropoxyazetidine-1-carboxamide]
89.5	97.5		Cc1cc(-c2ccnc(Nc3ccc(N4CCN(CC5CCN(c6ccc7c(c6)C(=O)N(C6CCC(=O)NC6=O)C7=O)CC5)CC4)cc3)n2)ccc1CNC(=O)c1cnn(C(C)(C)C)c1 (stereo not drawn) [Example 8, 1-(tert-butyl)-N-(4-(2-((4-(4-((1-(2-(2,6-dioxopiperidin-3-yl)-1,3-dioxoisoindolin-5-yl)piperidin-4-yl)methyl)piperazin-1-yl)phenyl)amino)pyrimidin-4-yl)-2-methylbenzyl)-1H-pyrazole-4-carboxamide]
76.5	96.5		Cc1cc(-c2ccnc(Nc3ccc(N4CCN(CC5CCN(c6ccc7c(c6)C(=O)N(C6CCC(=O)NC6=O)C7=O)CC5)CC4)cc3)n2)ccc1CNC(=O)c1cn(C(C)(C)C)nn1 (stereo not drawn) [Example 9, 1-(tert-butyl)-N-(4-(2-((4-(4-((1-(2-(2,6-dioxopiperidin-3-yl)-1,3-dioxoisoindolin-5-yl)piperidin-4-yl)methyl)piperazin-1-yl)phenyl)amino)pyrimidin-4-yl)-2-methylbenzyl)-1H-1,2,3-triazole-4-carboxamide]
94.5	98.5	56	Cc1cc(-c2ccnc(Nc3ccc(N4CCN(CC5CCN(c6ccc7c(n6)CN(C6CCC(=O)NC6=O)C7=O)CC5)CC4)cc3)n2)ccc1CNC(=O)N1CC(OC(C)C)C1 (stereo not drawn) [Example 10, N-(4-(2-((4-(4-((1-(6-(2,6-dioxopiperidin-3-yl)-5-oxo-6,7-dihydro-5H-pyrrolo[3,4-b]pyridin-2-yl)piperidin-4-yl)methyl)piperazin-1-yl)phenyl)amino)pyrimidin-4-yl)-2-methylbenzyl)-3-isopropoxyazetidine-1-carboxamide]
93.5	98.5	60	Cc1cc(-c2ccnc(Nc3ccc(N4CCN(CC5CN(c6ccc7c(c6)C(=O)N(C6CCC(=O)NC6=O)C7=O)C5)CC4)cc3)n2)ccc1CNC(=O)N1CC(OC(C)C)C1 (stereo not drawn) [Example 11, N-(4-(2-((4-(4-((1-(2-(2,6-dioxopiperidin-3-yl)-1,3-dioxoisoindolin-5-yl)azetidin-3-yl)methyl)piperazin-1-yl)phenyl)amino)pyrimidin-4-yl)-2-methylbenzyl)-3-isopropoxyazetidine-1-carboxamide]
84.5	98.5	23.5	Cc1cc(-c2ccnc(Nc3ccc(N4CCN(CC5CCN(c6cc7c(cc6F)C(=O)N(C6CCC(=O)NC6=O)C7=O)CC5)CC4)cc3)n2)ccc1CNC(=O)N1CC(OC(C)C)C1 (stereo not drawn) [Example 12, N-(4-(2-((4-(4-((1-(2-(2,6-dioxopiperidin-3-yl)-6-fluoro-1,3-dioxoisoindolin-5-yl)piperidin-4-yl)methyl)piperazin-1-yl)phenyl)amino)pyrimidin-4-yl)-2-methylbenzyl)-3-isopropoxyazetidine-1-carboxamide]
